Values joined by “and” are separate entries in the source; they are usually repeats but may differ in a detail not shown here. Identical values can stand only once.
System: Rh18 complex spheroid viability, percent test/control
Assay: Anticancer human tumor Rh18 cell line growth inhibition [Asc];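 note: spheroids exposed to compound for 7 days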;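 for viability, T/C: 100% = DMSO vehicle control wells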
Conditions: for viability, T/C: stronger effect = lower value
Procedure: Multicellular complex tumor spheroid response to apoptosis pathway targeting inhibitors Alrizomadlin, Pelcitoclax, and Dasminapant in combination with a variety of drugs and investigational agents in selected tumor cell lines
The MDM2 inhibitor alrizomadlin, the Bcl-2/Bcl-xL inhibitor pelcitoclax, and the IAPs inhibitor dasminapant were evaluated both individually and in combination with standard of care and investigational anticancer small molecules within a complex spheroid model of solid tumors. . Complex spheroids include a stromal component modeled by human endothelial cells (HUVEC) and fibroblasts modeled by human mesenchymal stem cells (MSCs). The concentration ranges selected for each drug and investigational agent were based upon clinically achievable concentrations if the clinical Cmax of the agent was known.
Compounds. The drugs and investigational agents: alrizomadlin (APG-115; NSC831270), pelcitoclax (APG-1252; NSC835773), dasminapant (APG-1387;NSC834197), TAK-243 (NSC785004), copanlisib (NSC809693), olaparib (NSC753686), talazoparib (NSC767125), cobimetinib (NSC 768068), eltanexor (KPT-8602, NSC 794443), abemaciclib (NSC 768073), sotorasib (NSC818433), adagrasib (NSC 831453), MRTX-1133 (NSC 836407), Iadademestat (ORY1001, NSC 806812), and RMC-4630 (NSC839698), were obtained from the NCI Developmental Therapeutics Program Chemical Repository. The FDA-approved anticancer drug set is available from the Developmental Therapeutics Program at https://dtp.cancer.gov/organization/dscb/obtaining/available plates.htm. […] The stock solutions were prepared in dimethyl sulfoxide (DMSO, Sigma-Aldrich, St. Louis, MO, cat. D2650) at 800-fold the tested concentration and stored at -70 degrees C prior to their use. All drugs and investigational agents were tested over a range starting from a high concentration at or near the clinical Cmax and decreasing in half-log increments. If the clinical Cmax for an agent had not been determined, the highest concentration tested was 10 microM.
The patient-derived cancer (PDC) cell lines include five colon adenocarcinomas: 186277-243-T-J2-PDC, 616215-338-R-J1-PDC, 439559-082-T-J2-PDC, 463943-066-T-J2-PDC, and 519858-162-T-J1-PDC; three pancreatic carcinomas: 323965-272-R-J2-PDC, 521955-158-R6-J3-PDC, and 521955-158-R2-J5-PDC; two uterine sarcomas: 327498-152-R-J2-PDC and 993429-296-R-J1-PDC; two rhabdomyosarcomas: 755483-174-R-J1-PDC and 772245-204-R-J1-PDC; two soft tissue sarcomas: 126254-015-R-J1-PDC and 494315-158-R-J1-PDC; two malignant fibrous histiocytomas: 317291-083-R-J1-PDC and 596521-263-R-J1-PDC; two breast carcinomas: 171881-019-R-J1-PDC and 885512-296-R-J2-PDC; and one ovarian carcinoma: 6556581-035-R-J-PDC were obtained from the NCI PDMR, (https://pdmr.cancer.gov). The established cell lines HSSY-2 synovial sarcoma (RRID:CVCL 8719), SYO-1 synovial sarcoma (RRID:CVCL_7146), MPNST malignant peripheral neural sheath tumor were obtained from the Sloan Kettering Institute. The following established cell lines were purchased from the American Type Culture Collection (ATCC, Manassas, VA), Sor the received from the NCI repository:, PANC-1 pancreatic carcinoma (CRL-1469, RRID:CVCL_0480), OVCAR-5 ovarian carcinoma (RRID:CVCL_1628), OVCAR-8 ovarian carcinoma (RRID:CVCL_1629), , MCF-7 breast carcinoma (CRL-12584, RRID:CVCL_0031), MDA-MB-231 breast carcinoma (CRL-12532, RRID:CVCL_0062), NCI-H1876 small cell lung carcinoma (CRL-5902, RRID:CVCL_1503), NCI-H510A small cell lung carcinoma (HTB-184, RRID:CVCL_1565), NCI-H1417 (CRL-5869, RRID:CVCL_1469), and NCI-H196 small cell lung carcinoma (CRL-5823, RRID:CVCL_1509). Dr. Peter Houghton (Greehey Children's Cancer Research Institute, University of Texas Health Science Center, San Antonio, TX) provided Rh-18 rhabdomyosarcoma (RRID:CVCL_1659). Pooled donor human umbilical vein endothelial cells (HUVEC, Lonza, cat. CC-2519) and human mesenchymal stem cells (hMSC, Lonza, cat. PT-2501) were purchased from Lonza (Walkersville, MD).
Cell Culture. […]

[1] = compound alone, run of 10/11/2022

SMILES | viability, T/C (compound 0.0316 µM) | viability, T/C (compound 0.1 µM) | viability, T/C (compound 0.316 µM) | viability, T/C (compound 1 µM) | viability, T/C (compound 3.16 µM) | viability, T/C (compound 10 µM) | IC50 (curve of compound) | viability, T/C (compound 0.00316 µM) | viability, T/C (compound 0.01 µM) | other results
C#Cc1c(F)ccc2cc(O)cc(-c3ncc4c(N5CC6CCC(C5)N6)nc(OCC56CCCN5CC(F)C6)nc4c3F)c12 (centres undefined) | 79.3% and 89.2% and 129% | 74.3% and 82.3% and 122% | 71.5% and 63.9% and 81.2% | 91.2% and 75.4% and 66.3% | 87.4% and 64.3% and 106% | 43.4% and 60.4% and 67.7% | 8120 nM and > 10000 nM |  |  | 
C=C(F)C(=O)N1CCN(c2nc(OCC3CCCN3C)nc3c2CCN(c2cccc4cccc(Cl)c24)C3)CC1CC#N (centres undefined) | 94.1% and 96.8% and 96.1% | 98.8% and 93.5% and 87.2% | 90.9% and 56.4% and 91.5% | 97.4% and 101% and 93.5% | 35.8% and 36.4% and 35.5% | 0.31% and 0.29% and 0.27% | 2410 nM and 2320 nM and 2350 nM |  |  | 
C=CC(=O)N1CCN(c2nc(=O)n(-c3c(C)ccnc3C(C)C)c3nc(-c4c(O)cccc4F)c(F)cc23)C(C)C1 (centres undefined) | 117% and 122% and 92.1% | 95.2% and 169% and 115% | 106% and 125% and 109% | 118% (2×) and 104% | 133% and 137% and 106% | 115% and 89.8% and 92% | > 10000 nM |  |  | 
CCN1C(C(=O)NC23CCC(C(=O)O)(CC2)CC3)C(c2cccc(Cl)c2F)C2(C(=O)Nc3cc(Cl)ccc32)C12CCCCC2 (centres undefined) |  |  |  |  |  |  | 17.8 nM and 11.6 nM |  |  | viability, T/C (compound 0.00949 µM): 53.3% and 52.8%; viability, T/C (compound 0.03 µM): 38.3% [middle of 15 runs]; viability, T/C (compound 0.0949 µM): 21.1% [middle of 15 runs]; viability, T/C (compound 0.3 µM): 13% [middle of 15 runs]; viability, T/C (compound 0.949 µM): 9.56% [middle of 15 runs]; viability, T/C (compound 3 µM): 9.14% [middle of 15 runs]; IC50 [1]: < 30 nM
CCN1CCN(Cc2ccc(Nc3ncc(F)c(-c4cc(F)c5nc(C)n(C(C)C)c5c4)n3)nc2)CC1 | 85.2% and 77.4% and 70.8% | 66.5% and 65.2% and 78.4% | 85.7% and 111% and 72.7% | 143% and 152% and 65.1% |  |  | > 1000 nM | 88.8% and 66.9% and 96.3% | 115% and 84.9% and 92.1% | 
CNC(C)C(=O)NC1CN(S(=O)(=O)c2cccc(S(=O)(=O)N3CCC4CCC(C(=O)NC(c5ccccc5)c5ccccc5)N4C(=O)C(NC(=O)C(C)NC)C3)c2)CCC2CCC(C(=O)NC(c3ccccc3)c3ccccc3)N2C1=O (centres undefined) |  |  |  |  |  |  | 21.6 nM and 33.4 nM | 80.3% and 79.9% and 75.9% |  | IC50 (compound alone, run of 11/15/2022): > 1000 nM
COc1c(OCCCN2CCOCC2)ccc2c3n(c(=NC(=O)c4cnc(N)nc4)nc12)CCN3 | 15.9% and 20.9% and 23.7% | 6.98% and 6.83% and 7.49% | 3.1% and 3.42% and 2.99% | 1.11% and 1.4% and 0.6% |  |  | 10.1 nM and 11.8 nM and 11.5 nM | 64.9% and 91.3% and 71.5% | 50.6% and 55% and 53.8% | 
Cc1c(S(C)(=O)=O)c(-c2cc(F)cc(N3CCN(c4ccc(NS(=O)(=O)c5ccc(NC(CCN6CCC(C(=O)OCCCP(=O)(O)O)CC6)CSc6ccccc6)c(S(=O)(=O)C(F)(F)F)c5)cc4)CC3)c2)c(-c2ccc(Cl)cc2)n1C(C)C (centres undefined) |  | 14.1% [middle of 14 runs] | 10% [middle of 14 runs] | 9.12% [middle of 13 runs] | 6.19% [middle of 14 runs] | 5.39% [middle of 14 runs] |  |  |  | IC50 [1]: < 100 nM
Cc1nc(N2CCC3(CC2)COC(C)C3N)c(CO)nc1Sc1ccnc(N)c1Cl (centres undefined) |  |  |  |  |  |  | 65.4 nM and 61.2 nM and 47.5 nM |  |  | viability, T/C (compound 0.00949 µM): 73.9% and 66.6% and 93.2%; viability, T/C (compound 0.03 µM): 59.7% and 84% and 54%; viability, T/C (compound 0.0949 µM): 42.7% and 34.4% and 43%; viability, T/C (compound 0.3 µM): 35.3% and 19.2% and 23.9%; viability, T/C (compound 0.949 µM): 25.5% and 25.6% and 19.7%; viability, T/C (compound 3 µM): 13.4% and 15.9% and 15.6%
Cn1ncnc1[C@H]1c2n[nH]c(=O)c3cc(F)cc(c23)N[C@@H]1c1ccc(F)cc1 | 41.5% and 46.6% and 46.8% | 41.6% and 51.8% and 40.3% |  |  |  |  | 12.9 nM and 10.8 nM and 3.16 nM | 79.1% and 73.3% and 49.3% | 51.2% and 49.3% and 46.3% | viability, T/C (compound 0.000316 µM): 113% and 102% and 90.3%; viability, T/C (compound 0.001 µM): 101% and 99.1% and 69.5%
NC(=O)C(=Cn1cnc(-c2cc(C(F)(F)F)cc(C(F)(F)F)c2)n1)c1cncnc1 |  |  |  |  |  |  | 38.8 nM and 58.3 nM and 88.7 nM |  |  | viability, T/C (compound 0.000949 µM): 85.9% and 82.9% and 85.5%; viability, T/C (compound 0.003 µM): 93.2% and 85.7% and 79.2%; viability, T/C (compound 0.00949 µM): 92.8% and 63.3% and 67.5%; viability, T/C (compound 0.03 µM): 53.9% and 57.6% and 61%; viability, T/C (compound 0.0949 µM): 40.6% and 46.8% and 52.6%; viability, T/C (compound 0.3 µM): 32.3% and 31.4% and 34.7%
NC1CCC(NC2CC2c2ccccc2)CC1 (centres undefined) | 120% and 98.2% and 110% | 114% and 119% and 102% |  |  |  |  | > 100 nM | 124% and 114% and 102% | 120% and 114% and 103% | viability, T/C (compound 0.000316 µM): 135% and 130% and 96.5%; viability, T/C (compound 0.001 µM): 134% and 133% and 98%
O=C(c1cc(Cc2n[nH]c(=O)c3ccccc23)ccc1F)N1CCN(C(=O)C2CC2)CC1 | 108% and 86.4% and 91.5% | 99.5% and 81.7% and 85.2% | 59.4% and 79.7% and 82.2% | 57.3% and 63.1% and 73.7% | 44.9% and 53% and 35.5% | 44.7% and 41.7% and 29.5% | 919 nM and 3840 nM and 2050 nM |  |  | 
O=C(c1ccc(F)c(F)c1Nc1ccc(I)cc1F)N1CC(O)([C@@H]2CCCCN2)C1 | 91.3% and 70.7% and 83.2% | 77.7% and 78.5% and 78% | 85% and 95.7% and 75.4% | 20.7% and 36.6% and 40.9% |  |  | 589 nM and 729 nM and 730 nM | 91.5% and 92.7% and 97.3% | 76.6% and 84.3% and 100% | 
